In PubChem BioAssay AID1996:
In brackets after ≈: the same amount, converted by molar mass.

details: buffer; pH 7.4; 200.0 µM

Row | SMILES | solubility kinetic [µg/mL]
1 | COc1ccc2nc(NC(=O)c3ccc(F)cc3)sc2c1 | < 0.3
2 | CC1=C(C(=O)Nc2ccc(C(=O)NCCC(C)C)cc2)SCCO1 | 46.3 (≈ 133 µM)
3 | O=C(CN1CCOCC1)NNC(=O)c1ccc([N+](=O)[O-])cc1 | > 46.2
4 | CCCCNc1c(N)n(CC(C)C)c(=O)[nH]c1=O | 35.9 (≈ 141 µM)
5 | CCOC(=O)C1CCCCN1Cc1ccc(-c2ccccc2)cc1 (configuration not stated) | 1.5 (≈ 4.64 µM)
6 | O=C(c1ccc(-c2ccc([N+](=O)[O-])cc2)o1)N1CCCCCCC1 | 9.1 (≈ 27.7 µM)
7 | CC(C)n1c(SCC(=O)Nc2nncs2)nnc1C1CC1 | > 48.7
8 | Nc1n[nH]c(N)c1N=Nc1ccc(F)cc1 | > 33
9 | COc1ccc(NC(=O)CON=CC(=O)Nc2ccc(C)cc2)c(OC)c1 | 3.8 (≈ 10.2 µM)
10 | CCNC(=O)c1ccccc1-c1nc(-c2ccccc2OC)no1 | 42.3 (≈ 131 µM)
11 | CC(C)Cn1c(N)c(C(=O)COC(=O)c2ccccc2C(=O)c2ccccc2)c(=O)n(C)c1=O | 3.5 (≈ 7.55 µM)
12 | CCOC(=O)/C(C#N)=C/Nc1cc(C(C)(C)C)sc1C(C)=O | < 0.3
13 | Cc1cc(C(=O)OCC(=O)NC(C)c2ccccc2)c(C)o1 (configuration not stated) | 17.7 (≈ 58.7 µM)
14 | COc1ccc(CC(CN)c2ccccc2)cc1 (configuration not stated) | 29.5 (≈ 122 µM)
15 | CC(OC(=O)[C@@H](NC(=O)c1ccco1)C(C)C)C(=O)Nc1ncc(Cl)cc1Cl (some centres not stated) | > 64.2
16 | CC(C)(C)Nc1c(-c2cccs2)nc2ccccn12 | 33.4 (≈ 123 µM)
17 | CCOc1ccccc1C(=O)NCC(=O)O | > 33.5
18 | Cn1c([O-])c(Cc2cccc(Cl)c2Cl)c(=O)n(C)c1=O.[NH4+] | 43.6
19 | O=C1CC(=O)N(c2ccccc2F)C(=O)N1 | > 33.3
20 | CCC1CCCCN1C(=O)c1ccc([N+](=O)[O-])o1 (configuration not stated) | > 37.8
21 | c1ccc(-c2noc(C3CCC3)n2)nc1 | 20.6 (≈ 102 µM)
22 | CC1CC(C(=O)Nc2ccccc2)C(=O)O1 (configuration not stated) | 27.2 (≈ 124 µM)
23 | NC(=O)c1cc(S(=O)(=O)NCc2cccs2)cs1 | 43.4 (≈ 144 µM)
24 | COc1ccc(-c2cc(C(F)(F)F)nc(N)n2)cc1 | 1.4 (≈ 5.2 µM)

Row | SMILES | solubility kinetic [µg/mL]
25 | CCCCC(C(=O)NC(C)c1ccccc1)C(=O)NC(C)c1ccccc1 (configuration not stated) | 1.5 (≈ 4.09 µM)
26 | Cc1ccc2nc(NC(=O)c3ccccc3F)sc2c1 | < 0.3
27 | C=CCn1c(Oc2cccc(C)c2)nc2c1c(=O)n(C)c(=O)n2C | > 49
28 | N#C/C(=C/c1ccc(O)c(O)c1)C(=O)NCc1ccc(Cl)cc1 | 44.9 (≈ 137 µM)
29 | C=CCNC(=O)c1cc2c(=O)n3ccccc3nc2s1 | 10.4 (≈ 36.4 µM)
30 | S=C(NCc1cccc(Cl)c1)NCc1ccco1 | 29.9 (≈ 106 µM)
31 | Cc1cc(C)c(C#N)c(N2CCN(c3ccccc3)CC2)n1 | 3.8 (≈ 13 µM)
32 | O=[N+]([O-])c1cccc(/C=N/n2cnnc2)c1 | > 32.6
33 | O=C(OCc1ccccc1Cl)c1cc([N+](=O)[O-])ccc1N1CCOCC1 | 3.4 (≈ 9.02 µM)
34 | C=CCn1c(COc2ccc(OC)cc2)nc2ccccc21 | 26.8 (≈ 91 µM)
35 | COC(CNC(=O)c1cccnc1)OC | 26.4 (≈ 126 µM)
36 | Cc1cccc(C(C)C)c1NC(=O)c1c(-c2ccccc2)noc1C | 0.6 (≈ 1.79 µM)
37 | CC(Oc1cccnc1[N+](=O)[O-])C(=O)N1CCc2ccccc21 (configuration not stated) | > 47
38 | O=C(CCc1nc(-c2ccccc2Cl)no1)NCc1ccco1 | > 49.8
39 | COc1ccc(Cl)cc1S(=O)(=O)NC(C)C(=O)NCc1ccccn1 (configuration not stated) | 52.8 (≈ 138 µM)
40 | CCS(=O)(=O)N1CCN(C(=O)c2cccc3ccccc23)CC1 | > 49.9
41 | COC(=O)c1ccc(N2C(=O)C3CC=CC(C)C3C2=O)cc1 (configuration not stated) | 20 (≈ 66.8 µM)
42 | CC(=O)N1CCN(C(=O)c2cc(=O)c3ccccc3o2)CC1 | > 45
43 | Cl.Nc1cccc2c3c(oc12)CCCC3 | 7.4
44 | CC(=O)N/C(=C\c1ccc(F)cc1)C(=O)OCc1ccccc1 | > 47
45 | CCC(C(=O)Nc1cc(Cl)c(OC)cc1OC)c1ccccc1 (configuration not stated) | < 0.7
46 | Cc1ccc(CNC(=O)C2CCCN2C(=O)Nc2ccc(C)cc2)cc1 (configuration not stated) | 11.4 (≈ 32.4 µM)
47 | Cl.O=C(CN1CCOCC1)NCc1ccc(F)cc1 | > 43.3
